Laboratory results published in patent publication US8853412B2, “Pyrrolidinone derivatives as GPR119 modulators for the treatment of diabetes, obesity, dyslipidemia and related disorders” (Sanofi, priority 2012, dated 2014).

Target: T1, human GPR119 (Homo sapiens, UniProt Q8TDV5)
T1 construct: expressed in transfected cells; host or cells: HEK-293 cell line stably expressing recombinant GPR119
T1 sequence (Q8TDV5 1-335): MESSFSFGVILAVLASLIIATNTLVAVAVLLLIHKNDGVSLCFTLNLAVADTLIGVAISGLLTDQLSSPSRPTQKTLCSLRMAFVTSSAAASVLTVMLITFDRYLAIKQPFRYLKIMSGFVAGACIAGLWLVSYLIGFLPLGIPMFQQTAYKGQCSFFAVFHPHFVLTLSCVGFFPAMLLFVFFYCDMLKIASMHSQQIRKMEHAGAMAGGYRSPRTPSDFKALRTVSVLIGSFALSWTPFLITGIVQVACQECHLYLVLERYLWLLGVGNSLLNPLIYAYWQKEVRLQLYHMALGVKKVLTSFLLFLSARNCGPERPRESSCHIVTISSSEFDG
Experiment: Functional cellular assay measuring GPR119-mediated cAMP release (HTRF), HEK-293 cells stably expressing recombinant GPR119
Type: cell-based
Details: cell line expressing human GPR119; cAMP response, 30 minutes at room temperature
Experimental: Functional Cellular Assays Measuring GPR119-Mediated cAMP Release.
Compounds of the invention, which are agonists of GPR119, were characterized by functional assays measuring the cAMP response of HEK-293 cell lines stably expressing recombinant GPR119 from man, mouse or rat, or by using a hamster cell line HIT-T15 expressing GPR119 endogenously. The cAMP content was determined using a kit based on homogenous time-resolved fluorescence (HTRF) from Cisbio Corp. (cat. no. 62AM4PEC). For preparation, cells were split into T175 culture flasks and grown to near confluency in medium (DMEM/10% FCS for HEK-293 cells, and F-12K medium/10% horse serum/2.5% FCS for HIT-T15 cells, respectively). Medium was then removed and cells washed with PBS lacking calcium and magnesium ions, followed by proteinase treatment with accutase (Sigma-Aldrich, cat. no. A6964). Detached cells were washed and resuspended in assay buffer (1×HBSS; 20 mM HEPES, 0.1% BSA, 2 mM IBMX) and cellular density determined. They were then diluted to 400000 cells/mL and 25 μL-aliquots dispensed to the wells of 96-well plates. For measurement, 25 μL of test compound in assay buffer was added and incubated for 30 minutes at room temperature. After addition of HTRF reagents diluted in lysis buffer, the plates were incubated for 1 hour, followed by measuring the fluorescence ratio at 665 vs. 620 nm. Potency of the agonists was quantified by determining the concentrations that caused 50% of the maximal response/activation (EC50). See Table 10 for exemplary data obtained using the cell line expressing human GPR119.

SMILES | EC50 [nM]
CC(=O)N1CCCC(Oc2ccc(O[C@@H]3CCN(c4cc(F)c5c(c4)C(=O)CC5)C3=O)cn2)C1 (stereo partly drawn) [Example 2-70] | 3010
Cn1cc(COc2ccc(O[C@@H]3CCN(c4cc(F)c5c(c4)C(=O)CC5)C3=O)cn2)cn1 [Example 2-71] | 2500
O=C1CCc2c(F)cc(N3CC[C@@H](Oc4ccc(OC5CCC5)nc4)C3=O)cc21 [Example 2-72] | 16
O=C1CCc2c(F)cc(N3CC[C@@H](Oc4ccc(OCC5CCCOC5)nc4)C3=O)cc21 (stereo partly drawn) [Example 2-73] | 159
O=C1CCc2c(F)cc(N3CC[C@@H](Oc4ccc(OC[C@H]5CCCO5)nc4)C3=O)cc21 [Example 2-74] | 84
O=C1CCc2c(F)cc(N3CC[C@@H](Oc4ccc(OCC5CCOC5)nc4)C3=O)cc21 (stereo partly drawn) [Example 2-75] | 95
O=C1CCc2c(F)cc(N3CC[C@@H](Oc4ccc(O[C@@H]5CCOC5)nc4)C3=O)cc21 [Example 2-76] | 94
O=C1CCc2c(F)cc(N3CC[C@@H](Oc4ccc(OCC(F)(F)F)nc4)C3=O)cc21 [Example 2-77] | 44
O=C1CCc2c(F)cc(N3CC[C@@H](Oc4ccc(OC5CCCOC5)nc4)C3=O)cc21 (stereo partly drawn) [Example 2-78] | 33
O=C1CCc2c(F)cc(N3CC[C@@H](Oc4ccc(OC5CCCOC5)nc4)C3=O)cc21 (stereo partly drawn) [Example 2-79] | 64
O=C1CCc2c(F)cc(N3CC[C@@H](Oc4ccc(OC(F)(F)F)cc4)C3=O)cc21 [Example 3-01] | 86
CC(C)c1noc(-c2ccc(O[C@@H]3CCN(c4cc(F)c5c(c4)C(=O)CC5)C3=O)cn2)n1 [Example 3-02] | 141
Cc1cnc(-c2ccc(O[C@@H]3CCN(c4cc(F)c5c(c4)C(=O)CC5)C3=O)cn2)s1 [Example 3-03] | 62
O=C(OCC1CC1)c1ccc(O[C@@H]2CCN(c3cc(F)c4c(c3)C(=O)CC4)C2=O)cn1 [Example 3-04] | 138
O=C1CCc2c(F)cc(N3CC[C@@H](Oc4ccc(C(=O)N5CCCC5)nc4)C3=O)cc21 [Example 3-05] | 3180
CCCCN(C)C(=O)c1ccc(O[C@@H]2CCN(c3cc(F)c4c(c3)C(=O)CC4)C2=O)cn1 [Example 3-06] | 978
CCCCSc1ccc(O[C@@H]2CCN(c3cc(F)c4c(c3)C(=O)CC4)C2=O)cn1 [Example 3-07] | 11

SMILES | EC50 [nM]
CCCC[S+]([O-])c1ccc(O[C@@H]2CCN(c3cc(F)c4c(c3)C(=O)CC4)C2=O)cn1 (stereo partly drawn) [Example 3-08] | 558
O=C1CCc2c(F)cc(N3CC[C@@H](Oc4cnc(OCC5CC5)c(F)c4)C3=O)cc21 [Example 3-09] | 12
Cc1cc(O[C@@H]2CCN(c3cc(F)c4c(c3)C(=O)CC4)C2=O)cnc1OCC1CC1 [Example 3-10] | 18
O=C1CCc2c(F)cc(N3CC[C@H](Oc4ccc(OCCC5CC5)nc4)C3=O)cc21 [Example 3-11] | 258
O=C1CCc2c(F)cc(N3CC[C@H](Oc4ccc(OCC5CC5)nc4)C3=O)cc21 [Example 3-12] | 281
O=C1CCc2c(F)cc(N3CC[C@@H](Oc4ccc(OC5CC5)nc4)C3=O)cc21 [Example 3-13, (R)-3-(6-Cyclopropoxy-pyridin-3-yloxy)-1-(7-fluoro-3-oxo-indan-5-yl)-pyrrolidin-2-one] | 19
CC(C)CCCc1ccc(O[C@@H]2CCN(c3cc(F)c4c(c3)C(=O)CC4)C2=O)cn1 [Example 3-14] | 81
CC(=O)c1ccc(O[C@@H]2CCN(c3cc(F)c4c(c3)C(=O)CC4)C2=O)cn1 [Example 3-15] | 29000
O=C1CCc2c(F)cc(N3CC[C@@H](Oc4ccc(SC5CC5)nc4)C3=O)cc21 [Example 3-16] | 19
O=C1CCc2c(F)cc(N3CC[C@@H](Oc4ccc(SCC5CC5)nc4)C3=O)cc21 [Example 3-17] | 11
CCOc1ncc(O[C@@H]2CCN(c3cc(F)c4c(c3)C(=O)CC4)C2=O)cc1F [Example 3-18] | 45
O=C1CCc2c(F)cc(N3CC[C@@H](Oc4cnc(OCC5CC5)c(Br)c4)C3=O)cc21 [Example 3-19] | 12
CC(C)Oc1ccc(O[C@H]2CCN(c3cc(F)c4c(c3)C(=O)CC4)C2=O)cn1 [Example 3-20] | 1050
CCOc1ccc(O[C@H]2CCN(c3cc(F)c4c(c3)C(=O)CC4)C2=O)cn1 [Example 3-21] | 1980
O=C1CCc2c(Cl)cc(N3CC[C@@H](Oc4ccc(OCC5CC5)nc4)C3=O)cc21 [Example 4-01] | 64
Cc1cc(N2CC[C@@H](Oc3ccc(OCC4CC4)nc3)C2=O)cc2c1CCC2=O [Example 4-02] | 283
N#Cc1cc(N2CC[C@@H](Oc3ccc(OCC4CC4)nc3)C2=O)cc2c1CCC2=O [Example 4-03] | 97

Continued, values first:

EC50 [nM] | SMILES
22 | O=C1CCc2c(F)cc(N3CC[C@@H](Oc4ccnc(OCCC5CC5)c4)C3=O)cc21 [Example 5-01]
190 | CCCCOc1cc(O[C@@H]2CCN(c3cc(F)c4c(c3)C(=O)CC4)C2=O)ccn1 [Example 5-02]
40 | O=C1CCc2c(F)cc(N3CC[C@@H](Oc4ccnc(OCC5CC5)c4)C3=O)cc21 [Example 5-03]
169 | CCOc1cc(O[C@@H]2CCN(c3cc(F)c4c(c3)C(=O)CC4)C2=O)ccn1 [Example 5-04]
65 | CCCOc1cc(O[C@@H]2CCN(c3cc(F)c4c(c3)C(=O)CC4)C2=O)ccn1 [Example 5-05]
32 | CCCCCOc1cc(O[C@@H]2CCN(c3cc(F)c4c(c3)C(=O)CC4)C2=O)ccn1 [Example 5-06]
30 | O=C1CCc2c(F)cc(N3CC[C@@H](Oc4ccnc(OCC(F)(F)F)c4)C3=O)cc21 [Example 5-07]
72 | CC(C)Oc1cc(O[C@@H]2CCN(c3cc(F)c4c(c3)C(=O)CC4)C2=O)ccn1 [Example 5-08]
126 | COCCCOc1cc(O[C@@H]2CCN(c3cc(F)c4c(c3)C(=O)CC4)C2=O)ccn1 [Example 5-09]
28 | O=C1CCc2c(F)cc(N3CC[C@@H](Oc4ccnc(OC5CCC5)c4)C3=O)cc21 [Example 5-10]
216 | O=C1CCc2c(F)cc(N3CC[C@@H](Oc4ccc(Oc5ccc(F)cn5)nc4)C3=O)cc21 [Example 6-01]
5590 | O=C1CCc2c(F)cc(N3CC[C@@H](Oc4ccc(OCC5CC5)[n+]([O-])c4)C3=O)cc21 [Example 7-01]
64 | COC(=O)c1cc(O[C@@H]2CCN(c3cc(F)c4c(c3)C(=O)CC4)C2=O)cnc1OCC1CC1 [Example 8-01]
2690 | O=C(O)c1cc(O[C@@H]2CCN(c3cc(F)c4c(c3)C(=O)CC4)C2=O)cnc1OCC1CC1 [Example 8-02]
> 100000 | CN(C)C(=O)c1cc(O[C@@H]2CCN(c3cc(F)c4c(c3)C(=O)CC4)C2=O)cnc1OCC1CC1 [Example 8-03]
109 | CCCc1cc(O[C@@H]2CCN(c3cc(F)c4c(c3)C(=O)CC4)C2=O)cnc1OCC1CC1 [Example 8-04]
242 | N#Cc1cc(O[C@@H]2CCN(c3cc(F)c4c(c3)C(=O)CC4)C2=O)cnc1OCC1CC1 [Example 8-05]
19 | O=C1CCc2c(F)cc(N3CC[C@@H](Oc4ccc(OCC5CC5)nc4)C3=O)c(F)c21 [Example 9-01]
69 | O=C1CCc2c(F)cc(N3CC[C@@H](Oc4ccc(OC5CC5)nc4)C3=O)c(F)c21 [Example 9-02]
46 | O=C1CCc2ccc(N3CC[C@@H](Oc4ccc(OCC5CC5)nc4)C3=O)c(F)c21 [Example 9-03]
